The values below come from ChEMBL document CHEMBL1134971, “Novel human histamine H(3) receptor antagonists” (Bioorg Med Chem Lett, 2002).

One may read the half-life as how long it takes for the measured level to halve. Low readings indicate rapid decline, high ones slow decline. As a reminder, the pKi is the Ki on a negative log10 scale, so that one unit is a factor of ten. A higher pKi goes with a low Ki. Broadly, the ED50 is the dose that gives a 50% effect, or the effect in half of the subjects. The low end stands for greater potency, the high end for weaker potency.

Each structure is given as a SMILES string. pKi: −log10 of the molar value.

Chain of Histamine H3 receptor (Rattus norvegicus) (Q9QYN8 whole entry): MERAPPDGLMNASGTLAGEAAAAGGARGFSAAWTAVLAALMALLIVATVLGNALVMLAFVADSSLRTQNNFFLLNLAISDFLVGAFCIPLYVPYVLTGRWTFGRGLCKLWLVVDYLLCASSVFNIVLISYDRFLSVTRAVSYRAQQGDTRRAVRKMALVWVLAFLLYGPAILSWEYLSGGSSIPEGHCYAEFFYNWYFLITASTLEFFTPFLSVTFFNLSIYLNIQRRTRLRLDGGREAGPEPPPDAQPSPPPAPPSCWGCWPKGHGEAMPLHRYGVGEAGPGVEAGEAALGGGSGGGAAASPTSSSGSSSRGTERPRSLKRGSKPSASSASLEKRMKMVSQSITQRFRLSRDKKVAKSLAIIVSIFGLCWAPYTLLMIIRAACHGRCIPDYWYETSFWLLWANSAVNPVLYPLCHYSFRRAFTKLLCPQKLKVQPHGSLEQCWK

Test system in one data set: not listed separately
The data set is described as follows: Oral bioavailability in rat. Type of data set: ADME, organism-based. As to conditions: in vivo, read-out: Bioavailabiility.
Turning to `Cc1ccn2cc(-c3ccc(OCCCN4CCCCC4)cc3)nc2c1`, the bioavailability is 57%.

Test system in a further data set: not listed separately
Nature of the data set: Half life in rat was tested. Format: ADME, organism-based. The note with it: in vivo.
In the case of `Cc1ccn2cc(-c3ccc(OCCCN4CCCCC4)cc3)nc2c1`, the half-life is 5.2 h.

The target of another data set is T1, Histamine H3 receptor (Homo sapiens, UniProt Q9Y5N1). Nature of the data set: Compound was tested for its binding affinity against human histamine H3 receptor.
T1 sequence (Q9Y5N1 whole entry): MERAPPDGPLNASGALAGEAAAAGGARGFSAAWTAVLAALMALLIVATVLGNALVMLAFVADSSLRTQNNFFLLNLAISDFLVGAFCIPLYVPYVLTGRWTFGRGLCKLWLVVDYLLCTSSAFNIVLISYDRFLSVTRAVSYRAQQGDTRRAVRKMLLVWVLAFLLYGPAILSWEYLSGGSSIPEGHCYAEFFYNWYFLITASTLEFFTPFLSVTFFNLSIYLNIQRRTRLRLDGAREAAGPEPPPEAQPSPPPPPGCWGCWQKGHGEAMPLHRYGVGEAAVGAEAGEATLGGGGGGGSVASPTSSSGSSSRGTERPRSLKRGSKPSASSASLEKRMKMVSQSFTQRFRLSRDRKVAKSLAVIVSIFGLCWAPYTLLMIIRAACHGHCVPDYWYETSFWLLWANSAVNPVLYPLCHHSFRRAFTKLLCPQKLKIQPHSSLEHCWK
Settings: not given
The molecule `CCCCN(CCCC)CCCOc1ccc(-c2cn3cccc(C)c3n2)cc1` had a negative-log Ki (pKi) of 5.40.

The next data set has as its target T1, Histamine H3 receptor. Nature of the data set: Binding affinity for human histamine H3 receptor.
Settings: not given
The molecule `CCCCN(CCCC)CCCOc1ccc(-c2nc3c(C)cccn3c2C)cc1` showed a pKi of 6.06.
On the same count and under the same terms, in the case of `Cc1ccn2cc(-c3ccc(OCCCN4CCCCC4)cc3C)nc2c1` it was 8.70.
Still for that read-out and setting: in the case of `Cc1ccn2cc(-c3ccc(OCCCN4CCCC4)cc3)nc2c1` it was 8.30; in that of `Cc1ccn2cc(-c3ccc(/C=C/CCN4CCCCC4)cc3)nc2c1`, 7.66; in that of `Cc1cccn2cc(-c3ccc(NC(=O)CCN4CCCCC4)cc3)nc12`, 6.52.
With `Cc1ccn2cc(-c3ccc(C#CCCN4CCCCC4)cc3)nc2c1`, the pKi was 8.15.
On the same count and under the same terms, then `Cc1ccn2cc(-c3ccc(OCCCN4CCCCCC4)cc3)nc2c1`, with 8.22; and `CCCN(CCC)CCCOc1ccc(-c2cn3cccc(C)c3n2)cc1`, with 7.37.
In turn, `CCCCN(CCCC)CCCOc1ccc(-c2cn3cccc([N+](=O)[O-])c3n2)cc1` gave a pKi of 4.96.
For the molecule `c1ccn2cc(-c3ccc(OCCCN4CCCCC4)cc3)nc2c1`, the pKi was 8.22.
`Cc1cccn2cc(-c3ccc(OCCCn4ccnc4)cc3)nc12` had a pKi of 6.00.
The molecule `Cc1cccn2cc(-c3ccc(NCCCN4CCCCC4)cc3)nc12` had a pKi of 7.82.
`Cc1cc(-c2cn3ccccc3n2)ccc1OCCCN1CCCCC1` showed a pKi of 7.55.
On the same count and under the same terms, in the case of `Cc1cccn2cc(-c3ccc(OCCCN(C(C)c4ccccc4)C(C)c4ccccc4)cc3)nc12` (configuration not stated) it was 5.40; in that of `Cc1cccn2cc(-c3ccc(OCCCN4CCOCC4)cc3)nc12`, 7.10.
Molecule `Cc1ccn2cc(-c3ccc(CCCCN4CCCCC4)cc3)nc2c1` had a negative-log Ki (pKi) of 7.77.
`Cc1cccn2cc(-c3ccc(NS(=O)(=O)CCCN4CCCCC4)cc3)nc12`: the pKi is 6.30.
Turning to `Cc1cccn2cc(-c3ccc(OCCCN4CCCCC4)cc3)nc12`, the pKi was 8.52.
Consider `COc1cc(-c2cn3ccc(C)cc3n2)ccc1OCCCN1CCCCC1`, for which the pKi is 7.16.
For the molecule `Cc1cccn2cc(-c3ccc(OCCCN(C)C)cc3)nc12`, the pKi was 7.89.

The next data set addresses Histamine H3 receptor (Rattus norvegicus) (UniProt Q9QYN8). Nature of the data set: Ex-vivo effective dose required for rat histamine H3 receptor occupancy by the compound using [3H]R-alpha-methylhistamine upon subcutaneous administration.
Settings: not given
Molecule `Cc1ccn2cc(-c3ccc(OCCCN4CCCCC4)cc3)nc2c1` came in with an ED50 of 0.2 mg/kg.
As for `S=C(NC1CCCCC1)N1CCC(c2cnc[nH]2)CC1`, it took a dose of 2 mg/kg to reach the 50% effect level (ED50).

The target of another data set is T2, Histamine H3 receptor (Rattus norvegicus, UniProt Q9QYN8). The data set is described as follows: Antagonist activity for rat histamine H3 receptor was determined. Format: functional. As to conditions: read-out: pA2 (converted).
T2 sequence (Q9QYN8 whole entry): as the sequence (Q9QYN8 whole entry) above
`Cc1ccn2cc(-c3ccc(OCCCN4CCCCC4)cc3)nc2c1`: the Kb was 4.68 nM.

A further data set deals with T2, Histamine H3 receptor. Nature of the data set: Compound was tested for its binding affinity for rat histamine H3 receptor.
Settings: not given
Molecule `Cc1ccn2cc(-c3ccc(OCCCN4CCCCC4)cc3)nc2c1` gave a pKi of 8.00.
